Results reported in ChEMBL document CHEMBL5104090, “Recent advances in the medicinal chemistry of carbonic anhydrase inhibitors” (Eur J Med Chem, 2021).
One block for each compound: values may come before it.

Key:
[1] = target: T1, Carbonic anhydrase 1 (Homo sapiens, UniProt P00915)
Target sequence in this assay (P00915 whole entry): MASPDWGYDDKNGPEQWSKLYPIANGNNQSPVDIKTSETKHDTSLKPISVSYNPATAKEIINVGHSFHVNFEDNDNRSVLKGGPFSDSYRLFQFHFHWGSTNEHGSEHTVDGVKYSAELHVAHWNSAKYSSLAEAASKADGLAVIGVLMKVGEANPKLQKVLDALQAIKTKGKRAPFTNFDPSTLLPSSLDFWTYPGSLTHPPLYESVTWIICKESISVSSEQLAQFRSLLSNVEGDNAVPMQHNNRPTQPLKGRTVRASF

[2] = target: T2, Carbonic anhydrase 2 (Homo sapiens, UniProt P00918)
[3] = target: T3, Carbonic anhydrase 9 (Homo sapiens, UniProt Q16790)
[4] = target: T4, Carbonic anhydrase 12 (Homo sapiens, UniProt O43570)
[5] = target: T1, Carbonic anhydrase 1; remark: listed apart in the source
Target sequence in this assay (P00915 2-261 limits assumed): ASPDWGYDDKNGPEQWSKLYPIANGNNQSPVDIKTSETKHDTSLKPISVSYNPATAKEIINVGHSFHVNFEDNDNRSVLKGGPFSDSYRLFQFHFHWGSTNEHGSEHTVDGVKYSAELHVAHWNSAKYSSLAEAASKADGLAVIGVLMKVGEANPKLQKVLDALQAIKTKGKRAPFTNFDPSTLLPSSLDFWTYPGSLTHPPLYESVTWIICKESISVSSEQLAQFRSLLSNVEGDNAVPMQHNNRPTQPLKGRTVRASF

[6] = target: T3, Carbonic anhydrase 9; remark: listed apart in the source
[7] = target: T2, Carbonic anhydrase 2; remark: listed apart in the source
[8] = target: T1, Carbonic anhydrase 1; remark: listed apart in the source
Target sequence in this assay (P00915 whole entry): as the sequence (P00915 whole entry) above

[9] = target: T2, Carbonic anhydrase 2; remark: listed apart in the source
[10] = target: T3, Carbonic anhydrase 9; remark: listed apart in the source
[11] = target: Carbonic anhydrase 4 (Homo sapiens, UniProt P22748)
[12] = test system: Ca9-22; experiment: cells; format: functional; settings: Homo sapiens, time 48 hrs
Description: Cytotoxicity against human Ca9-22 cells assessed as cell growth inhibition measured after 48 hrs by MTT assay

[13] = test system: HSC-2; experiment: cells; format: functional; settings: Homo sapiens, time 48 hrs
Description: Cytotoxicity against human HSC-2 cells assessed as cell growth inhibition measured after 48 hrs by MTT assay

[14] = test system: HSC-3; experiment: cells; format: functional; settings: Homo sapiens, time 48 hrs
Description: Cytotoxicity against human HSC-3 cells assessed as cell growth inhibition measured after 48 hrs by MTT assay

[15] = test system: HSC-4; experiment: cells; format: functional; settings: Homo sapiens, time 48 hrs
Description: Cytotoxicity against human HSC-4 cells assessed as cell growth inhibition measured after 48 hrs by MTT assay

[16] = target: T1, Carbonic anhydrase 1; remark: listed apart in the source
Target sequence in this assay (P00915 whole entry): as above

[17] = target: T2, Carbonic anhydrase 2; remark: listed apart in the source
[18] = target: Carbonic anhydrase 7 (Homo sapiens, UniProt P43166)
[19] = target: T1, Carbonic anhydrase 1; remark: listed apart in the source
Target sequence in this assay (P00915 whole entry): as above

[20] = target: T4, Carbonic anhydrase 12; remark: listed apart in the source
[21] = target: T1, Carbonic anhydrase 1; remark: listed apart in the source
Target sequence in this assay (P00915 whole entry): as above

[22] = target: T2, Carbonic anhydrase 2; remark: listed apart in the source
[23] = target: T2, Carbonic anhydrase 2; remark: listed apart in the source

Chain of Carbonic anhydrase 7 (P43166 whole entry): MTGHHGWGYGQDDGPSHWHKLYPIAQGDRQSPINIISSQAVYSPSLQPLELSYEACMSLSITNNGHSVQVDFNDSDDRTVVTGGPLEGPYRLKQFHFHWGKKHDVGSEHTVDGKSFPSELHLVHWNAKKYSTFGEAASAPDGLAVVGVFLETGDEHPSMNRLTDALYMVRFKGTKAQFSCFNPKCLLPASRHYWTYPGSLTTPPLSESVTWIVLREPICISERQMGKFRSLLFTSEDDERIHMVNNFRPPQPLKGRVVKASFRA
Chain of Carbonic anhydrase 4 (P22748 whole entry): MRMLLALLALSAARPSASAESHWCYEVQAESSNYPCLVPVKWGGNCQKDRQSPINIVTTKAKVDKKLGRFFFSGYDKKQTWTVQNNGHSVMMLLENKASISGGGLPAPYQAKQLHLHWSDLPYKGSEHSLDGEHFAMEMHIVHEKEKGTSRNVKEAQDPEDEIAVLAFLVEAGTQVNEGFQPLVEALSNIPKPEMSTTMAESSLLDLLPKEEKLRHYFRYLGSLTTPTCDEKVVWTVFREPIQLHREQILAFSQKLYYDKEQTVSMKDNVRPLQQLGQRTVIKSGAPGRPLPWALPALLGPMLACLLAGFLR
T4 sequence (O43570 whole entry): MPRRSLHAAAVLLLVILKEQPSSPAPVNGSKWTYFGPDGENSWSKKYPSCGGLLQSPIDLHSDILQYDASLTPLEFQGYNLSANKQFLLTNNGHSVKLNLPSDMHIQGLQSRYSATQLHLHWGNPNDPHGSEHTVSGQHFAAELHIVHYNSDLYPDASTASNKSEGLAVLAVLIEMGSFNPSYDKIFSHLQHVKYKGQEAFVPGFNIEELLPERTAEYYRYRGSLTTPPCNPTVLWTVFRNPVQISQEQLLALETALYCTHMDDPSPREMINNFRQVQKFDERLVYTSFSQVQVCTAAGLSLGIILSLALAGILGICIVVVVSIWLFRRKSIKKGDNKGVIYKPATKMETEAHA

IC50 [1]: > 360 nM
IC50 [2]: > 360 nM
IC50 [3]: > 360 nM
IC50 [4]: > 360 nM
SMILES: Cn1c(-c2ccc(Cl)cc2)nc2cc(S(N)(=O)=O)ccc21

IC50 [1]: > 360 nM
IC50 [2]: > 360 nM
IC50 [3]: > 360 nM
IC50 [4]: > 360 nM
SMILES: Cn1c(-c2ccccc2)nc2cc(B(O)O)ccc21

Kis [5]: 84.3 nM
Kis [6]: 3 nM
SMILES: Cc1ccc2c(c1)C(=O)N(NC(=O)c1ccc(S(N)(=O)=O)cc1)C2=O

Ki [7]: 51.1 nM
SMILES: O=C1/C(=C\c2ccc(O)c(CN3CCN(c4ccccc4F)CC3)c2)Cc2ccccc21

IC50 [1]: > 360 nM
IC50 [2]: > 360 nM
IC50 [3]: > 360 nM
IC50 [4]: > 360 nM
SMILES: NS(=O)(=O)c1ccc2[nH]c(-c3ccccc3)nc2c1

Ki [8]: 9300 nM
Ki [9]: 0.48 nM
Ki [10]: 0.21 nM
Ki [11]: 6.5 nM
SMILES: NS(=O)(=O)c1ccc(N/C=C/C(=O)c2ccc(F)cc2)cc1

SMILES: COc1ccc(C2CC(c3ccc(Cl)cc3)=NN2c2ccc(S(N)(=O)=O)cc2)c(OC)c1 (stereo not given)
CC50 [12]: 15000 nM
CC50 [13]: 15000 nM
CC50 [14]: 15000 nM
CC50 [15]: 15000 nM

Ki [16]: 1.06 nM
Ki [17]: 0.68 nM
SMILES: Brc1ccc(NN=C2C(c3ccccc3)=NN=C2c2ccccc2)cc1

Kis [5]: 84.3 nM
SMILES: NS(=O)(=O)c1ccc(C(=O)NN2C(=O)c3nccnc3C2=O)cc1

SMILES: Fc1ccc([SeH])cc1
Ki [10]: 180 nM
Ki [18]: 760 nM

Ki [8]: > 10000 nM
Ki [9]: 0.48 nM
Ki [10]: 0.21 nM
Ki [11]: 6.5 nM
SMILES: NS(=O)(=O)c1ccc(N/C=C/C(=O)c2ccc3ccccc3c2)cc1

Ki [7]: 51.1 nM
SMILES: O=C1/C(=C\c2ccc(O)c(CN3CCN(c4ccc(F)cc4)CC3)c2)Cc2ccccc21

Ki [19]: > 100000 nM
Kis [20]: 0.3 µM
SMILES: O=C(O)CN1C(=O)S/C(=C/c2ccccc2Cl)C1=O

SMILES: COc1ccc(C2CC(c3ccc(F)cc3)=NN2c2ccc(S(N)(=O)=O)cc2)cc1OC (stereo not given)
CC50 [12]: 15000 nM
CC50 [13]: 15000 nM
CC50 [14]: 15000 nM
CC50 [15]: 15000 nM

IC50 [1]: > 360 nM
IC50 [2]: > 360 nM
IC50 [3]: > 360 nM
IC50 [4]: > 360 nM
SMILES: Cn1c(-c2ccc(Cl)cc2)nc2cc(B(O)O)ccc21

Ki [7]: 51.1 nM
SMILES: O=C1/C(=C\c2ccc(O)c(CN3CCN(Cc4ccccc4)CC3)c2)Cc2ccccc21

SMILES: Cc1ccc([SeH])cc1
Ki [10]: 180 nM
Ki [18]: 760 nM

IC50 [1]: > 360 nM
IC50 [2]: > 360 nM
IC50 [3]: > 360 nM
IC50 [4]: > 360 nM
SMILES: NS(=O)(=O)c1ccc2[nH]c(-c3ccc(Cl)cc3)nc2c1

Ki [8]: > 10000 nM
Ki [10]: 0.21 nM
Ki [11]: 6.5 nM
SMILES: NS(=O)(=O)c1ccc(N/C=C/C(=O)c2ccc([N+](=O)[O-])cc2)cc1

SMILES: COc1ccc(C2CC(c3ccc(F)cc3)=NN2c2ccc(S(N)(=O)=O)cc2)c(OC)c1 (stereo not given)
CC50 [12]: 15000 nM
CC50 [13]: 15000 nM
CC50 [14]: 15000 nM
CC50 [15]: 15000 nM

Ki [21]: 24.2 nM
Ki [22]: 37.3 nM
SMILES: NS(=O)(=O)c1ccc(N2N=C(c3cccs3)CC2c2cccs2)cc1 (stereo not given)

Kis [5]: 84.3 nM
SMILES: NS(=O)(=O)c1ccc(C(=O)NN2C(=O)C3CC=CCC3C2=O)cc1 (stereo not given)

Ki [19]: > 100000 nM
Kis [20]: 0.3 µM
SMILES: O=C(O)CN1C(=O)S/C(=C/c2ccc(Br)cc2)C1=O

Ki [21]: 24.2 nM
Ki [22]: 37.3 nM
SMILES: NS(=O)(=O)c1ccc(N2N=C(c3cccs3)CC2c2ccc(F)cc2)cc1 (stereo not given)

Ki [23]: 0.009 nM
SMILES: NS(=O)(=O)c1ccc(C(=O)N[C@@H]2O[C@H](CO)[C@H](O)[C@H](O)[C@H]2O)cc1

Ki [7]: 51.1 nM
SMILES: O=C1/C(=C\c2ccc(O)c(CN3CCN(c4ccccc4)CC3)c2)Cc2ccccc21

SMILES: COc1ccc(C2CC(c3ccc(Cl)cc3)=NN2c2ccc(S(N)(=O)=O)cc2)cc1OC (stereo not given)
CC50 [12]: 15000 nM
CC50 [13]: 15000 nM
CC50 [14]: 15000 nM
CC50 [15]: 15000 nM

Ki [23]: 0.009 nM
SMILES: NS(=O)(=O)c1ccc(C(=O)N[C@@H]2O[C@H](CO)[C@@H](O)[C@H](O)[C@H]2O)cc1

SMILES: Cc1ccccc1[SeH]
Ki [18]: 760 nM

SMILES: COc1cc([SeH])cc(OC)c1OC
Ki [8]: > 50000 nM
Ki [9]: > 50000 nM
Ki [10]: 180 nM
Ki [18]: > 50000 nM

SMILES: COc1ccc(C2CC(c3ccccc3)=NN2c2ccc(S(N)(=O)=O)cc2)cc1OC (stereo not given)
CC50 [12]: 15000 nM
CC50 [13]: 15000 nM
CC50 [14]: 15000 nM
CC50 [15]: 15000 nM

Ki [9]: 25.4 nM
SMILES: NS(=O)(=O)c1ccc(CCn2c(SCC(=O)Nc3ccc(Cl)cc3)nc3ccccc3c2=O)cc1

IC50 [1]: > 360 nM
IC50 [2]: > 360 nM
IC50 [3]: 6.6 nM
IC50 [4]: 9.9 nM
SMILES: Cn1c(-c2ccccn2)nc2cc(S(N)(=O)=O)ccc21

SMILES: COc1ccccc1[SeH]
Ki [18]: 760 nM

Ki [16]: 1.06 nM
Ki [17]: 0.68 nM
SMILES: Cc1ccc(C)c(-n2nc(-c3ccccc3)c(/N=N/c3ccc(Br)cc3)c2-c2ccccc2)c1

Ki [21]: 24.2 nM
Ki [22]: 37.3 nM
SMILES: Cc1ccc(C2CC(c3cccs3)=NN2c2ccc(S(N)(=O)=O)cc2)cc1 (stereo not given)
